# Key:
# [1] = Vitreous pharmacokinetics after oral or subconjunctival administration; format: in vivo, mouse
# Protocol: (§1) For oral delivery of R788, the target dose of 25 mg/kg R788 was administered by oral gavage as a 4 mM solution in 0.01 N citrate buffer, pH 6 ([9]). For subconjunctival administration, R788 was prepared at a concentration of 4 mM in 2% PEG-800 and filtered through a 0.22 μm filter prior to use (see Table S1). R788 was also administered subconjunctivally as a suspension at a concentration of 25 mM in 10% 2-hydroxylpropyl-β-cyclodextrin (HPβCD, Sigma-Aldrich). For subconjunctival administration, R406 phenylsulfonate salt was administered at a concentration of 800–900 μM as a cosolvent solution in a formulation of 5% Cremaphor-eL, 0.5% ethanol, 0.2% Tween 80 and 94.3% PBS, filtered through a 0.22 μm filter prior to use (see Table S2). R406 phenylsulfonate salt was also administered subconjunctivally at a dose of 31.4 mM solution in DMSO. R406 free base was administered subconjunctivally at a concentration of 6.5 mM as a 25% castor oil (Sigma-Aldrich) emulsion. This emulsion was prepared by mixing castor oil: ethanol (1:1) solution of R406 (approx. 35 mM), in vacuo evaporation of the ethanol, and centrifugation to remove any excess R406, then emulsifying the R406 oil phase in an aqueous phase comprised of Cremaphor-eL, Tween 80 and PBS (final composition of the emulsion: 25% castor oil, 5% Cremaphor-eL, 0.2% Tween-80, 69.8% PBS) by probe sonication. For intravitreal injection, R788 solution was prepared by filtering a 0.12 mM (120 μM) solution of R788 in saline through a 0.22 μm filter. […] For topical delivery, 25–30 mM suspensions were prepared in 5% HPβCD. R406 or R788 concentration in all formulations was determined by UPLC prior to study (in cases where formulation was filtered before administration, concentration was determined post-filtering) Table I.
# For the systemic delivery study R788 was administered as a single bolus dose (25 mg/kg, 10 mL/kg volume) by oral gavage. For the subconjunctival administration study R788 or R406 (10 µL of formulation) was injected into the subconjunctival space of an anesthetized mouse using a Hamilton microliter syringe (Hamilton company, Reno NV). For the intravitreal administration study, R788 (5 μL of […] in saline) was administered to each eye via direct injection. To perform the intravitreal injection, mice were anesthetized, a small incision between the sclera and the cornea was created with a […] needle, and the R788 was injected into the vitreous using a Hamilton microliter syringe. For the topical administration study, R406 (2 μL of 25–30 mM suspension) was applied as a drop to the surface of each eye of an anesthetized mouse.
# At serial time points (0.5, 1, 2, 4, and 8 h post-injection, n = 3 for each time point), blood was collected by terminal cardiac puncture after isoflurane anesthesia. Whole-blood samples were centrifuged immediately at 10,000×g for 5 min at 4°C to separate plasma. Once the cardiac puncture and blood collection was completed, the animal was perfused with 10 mL of saline and euthanized by cervical dislocation. Eyes were removed, rinsed in PBS, gently patted dry, then rinsed and dried again. Eyes were dissected and vitreous was collected. Plasma and vitreous samples were put on dry ice immediately after collection and stored at −80°C until analysis. For quantitative analysis methods and assay validation methods and results, see Supplementary Information.
# Plasma and vitreous concentration time data were analyzed using non-compartmental analysis in WinNonlin 6.2 (Pharsight, Mountain View, CA), providing PK parameters including Cmax (maximum observed concentration), Tmax (time to reach maximum observed concentration), AUC (area under the concentration time curve) and MRT (mean residence time). AUC and AUMC (area under the concentration time first moment curve) values were estimated with the linear trapezoidal method, with parameters calculated using mean concentration values at each time point. […]
# [2] = Maximum solubility in PBS or saline; format: physicochemical; details: PBS; read-out: maximum solubility in PBS
# [3] = Co-solvent solution formulation solubility matrix; format: physicochemical
# [4] = Concentration and stability of R406 in castor oil and castor oil emulsion; format: physicochemical
# Protocol: as §1
# An emulsion of 30% castor oil, 5% Cremaphor, 4% T80, 61% PBS was prepared and samples were stored at 4 °C and room temperature (25 °C). Samples were diluted and OD600 for each dilution was measured in triplicate on the day of emulsion preparation (storage time = 0 days) and after 6 days of storage. OD600 was measured using a black Costar clear bottom plate and a Spectramax plate reader.
# For storage stability in emulsion, n =4.
# [5] = Storage stability of R406 in murine plasma samples; format: physicochemical, mouse; details: murine plasma at -20°C, thawed on Day 3, injected at Day 3
# [6] = local (subconjunctival), DMSO 31.4 mM, 314 nmol per eye, mice
# [7] = local (subconjunctival), co-solvent solution 0.88 mM, 8.8 nmol per eye, mice
# [8] = Storage Time = 24 hr, room temperature
# [9] = Storage Time = 48 hr, room temperature
# [10] = Storage Time = 72 hr, room temperature
compound,measurement,setting,value
COc1cc(Nc2ncc(F)c(Nc3ccc4c(n3)NC(=O)C(C)(C)O4)n2)cc(OC)c1OC.O=S(=O)(O)c1ccccc1 [R406 phenylsulfonate salt],ratio of vitreous AUC to plasma AUC relative to R788 in suspension (250 nmol per eye),"[1]; R406 salt administered locally, 314 nmol total per eye",22 fold
same,Cmax,[1]; [6],0.892 ± 0.35 µM
same,Ratio Vitreous AUClast/Plasma AUClast,[1]; [6],6.6
same,Vitreous AUClast,[1]; [6],"1,960 nM∙h"
same,Vitreous Dose normalized AUC,[1]; [6],3.1 nM∙h/nmol
same,Vitreous MRT0-4h,[1]; [6],121 min
same,Vitreous Tlast,[1]; [6],4 h
same,Vitreous Tmax,[1]; [6],30 min
same,Vitreous MRT0-4h,"[1]; local (subconjunctival), DMSO 31.4 mM, 314 nmol per eye, mice, listed as R406 salt",≥ 120 min
same,Cmax,[1]; [7],0.0413 ± 0.018 µM
same,Vitreous AUClast,[1]; [7],33.7 nM·h
same,Vitreous Dose normalized AUC,[1]; [7],1.9 nM∙h/nmol
same,Vitreous MRT0-4h,[1]; [7],46.9 min
same,Vitreous Tlast,[1]; [7],2 h
same,Vitreous Tmax,[1]; [7],30 min
same,Vitreous MRT0-4h,"[1]; local (subconjunctival), co-solvent solution 0.88 mM, 8.8 nmol per eye, mice, listed as R406 salt",less than 1 h
same,solubility,[2],0.0004 mM
same,R406 Solubility,"[3]; Trial 1: 0.1% Tyloxapol, 99.9% PBS",11.7 mM
same,R406 Solubility,"[3]; Trial 4: 3% Glycerin, 97% PBS",0.4 mM
same,R406 Solubility,"[3]; Trial 5: 5% Cremaphor-eL, 95% PBS",170.1 mM
same,R406 Solubility,"[3]; Trial 6: 10% pG, 90% PBS",0.4 mM
same,R406 Solubility,"[3]; Trial 7: 15% pPG, 85% PBS",15 mM
same,R406 Solubility,"[3]; Trial 8: 0.2% Tween-80, 99.8% PBS",399.2 mM
same,R406 Solubility,[3]; Trial 9: 100% PBS,0.4 mM
same,R406 Solubility,"[3]; Trial 10: 2% PEG-8000, 0.2% Tween-80, 97.8% PBS",0.4 mM
same,R406 Solubility,"[3]; Trial 11: 0.5% EtOH, 0.2% Tween-80, 85.8% PBS",0.6 mM
same,R406 Solubility,"[3]; Trial 12: 3% Glycerin, 0.2% Tween-80, 96.8% PBS",1.0 mM
same,R406 Solubility,"[3]; Trial 13: 5% Cremaphor-eL, 0.2% Tween-80, 94.8% PBS",178.0 mM
same,R406 Solubility,"[3]; Trial 14: 10% pG, 0.2% Tween-80, 99.8% PBS",0.9 mM
same,R406 Solubility,"[3]; Trial 15: 15% pPG, 0.2% Tween-80, 85.8% PBS",31.4 mM
same,R406 Solubility,"[3]; Trial 16: 2% PEG-8000, 0.5% EtOH, 97.5% PBS",1.5 mM
same,R406 Solubility,"[3]; Trial 17: 2% PEG-8000, 3% Glycerin, 95% PBS",0.4 mM
same,R406 Solubility,"[3]; Trial 18: 2% PEG-8000, 5% Cremaphor-eL, 93% PBS",144.0 mM
same,R406 Solubility,"[3]; Trial 19: 2% PEG-8000, 10% pG, 88% PBS",1.4 mM
same,R406 Solubility,"[3]; Trial 20: 2% PEG-8000, 15% pPG, 83% PBS",22.9 mM
same,R406 Solubility,"[3]; Trial 21: 0.5% EtOH, 3% Glycerin, 96.5% PBS",0.4 mM
same,R406 Solubility,"[3]; Trial 22: 0.5% EtOH, 5% Cremaphor-eL, 94.5% PBS",183.9 mM
same,R406 Solubility,"[3]; Trial 24: 0.5% EtOH, 15% pPG, 84.5% PBS",18.4 mM
same,R406 Solubility,"[3]; Trial 25: 3% Glycerin, 5% Cremaphor-eL, 92% PBS",183.9 mM
same,R406 Solubility,"[3]; Trial 26: 3% Glycerin, 10% pG, 87% PBS",0.4 mM
same,R406 Solubility,"[3]; Trial 27: 3% Glycerin, 15% pPG, 82% PBS",18.2 mM
same,R406 Solubility,"[3]; Trial 28: 5% Cremaphor-eL, 10% pG, 85% PBS",161.5 mM
same,R406 Solubility,"[3]; Trial 29: 5% Cremaphor-eL, 15% pPG, 80% PBS",138.0 mM
same,R406 Solubility,"[3]; Trial 30: 10% pG, 15% pPG, 75% PBS",23.3 mM
same,R406 Solubility,"[3]; Trial 32: 0.5% EtOH, 5% Cremaphor-eL, 0.2% Tween-80, 94.3% PBS",830.9 mM
same,R406 Solubility,"[3]; Trial 33: 0.5% EtOH, 3% Glycerin, 5% Cremaphor-eL, 0.2% Tween-80, 91.3% PBS",773.9 mM
COc1cc(Nc2ncc(F)c(Nc3ccc4c(n3)NC(=O)C(C)(C)O4)n2)cc(OC)c1OC [R406],maximum intraocular concentration that could be reached from subconjunctival route,"[1]; DMSO control, 31.4 mM R406 in DMSO, subconjunctival, mice",approximately 1 μM
same,maximal concentration achieved in the vitreous,"[1]; subconjunctival, 10 μl of R406 solution formulation per eye, mice",0.05 µM
same,Average Concentration in castor oil emulsion,"[4]; Initial Concentration, room temperature, n=4",12.39 ± 1.21 mM
same,time emulsion was stable,"[4]; R406 castor oil emulsion, room temperature",48 h
same,Average Concentration in castor oil emulsion,[4]; [8],11.03 ± 2.09 mM
same,Percentage of Initial Concentration in castor oil emulsion,[4]; [8],89.0%
same,Average Concentration in castor oil emulsion,[4]; [9],9.78 ± 3.13 mM
same,Percentage of Initial Concentration in castor oil emulsion,[4]; [9],78.9%
same,Average Concentration in castor oil emulsion,[4]; [10],12.45 ± 1.43 mM
same,Percentage of Initial Concentration in castor oil emulsion,[4]; [10],100.5%
same,concentration of R406 achieved in emulsion,[4]; castor oil emulsion,6500 µM
same,time stable in castor oil emulsion,[4]; room temperature,at least 72 hours
same,Accuracy%,[5]; High Control 3333.3 nM,90.3%
same,Accuracy%,[5]; Low Control 41.2 nM,96.1%
